Some results are limits rather than exact numbers.

In one experiment the test system is HCV replicon Luc Neo ET. As to the kind of experiment: HCV replication inhibition assay (replicon assay, luciferase reporter). In kind it is cell-based. The note with it: Hepatitis C virus; Huh-7 cell lines containing HCV replicon Luc Neo ET; 72 hours with compound; 1 % DMSO; firefly luciferase reporter; concentration that produces 50 % of replication inhibition; read-out: EC50 Replicon LucneoET. How it is done:
The compounds according to the present invention were tested for their ability to inhibit HCV replication as follows:
Huh-7 cell lines containing HCV replicon Luc Neo ET (Reblikon) were maintained in DMEM supplemented with 10% SVF, 2 mM glutamine, and 1 X NEAA, 100 U / ml penicillin, and 100 µg / ml streptomycine. Cells were maintained in medium supplemented with 0.5 mg/ml G418, at 37°C and 5% CO2 in a humidified atmosphere. Cells were dissociated at sub confluence with trypsin EDTA 1X.
Replicon Luc Neo ET is bicistronic expression constructs (Lohmann et al, 1999, Science 285, 110-113). In brief, the structural genes of the HCV genome were replaced by heterologous sequences; the gene encoding the neomycin phosphotransferase (NPT) and the internal ribosome entry site (IRES) of the encephalomyocarditis virus (EMCV). The bicistronic construct is therefore composed of the following elements: HCV-IRES nucleotides 1-389 for Luc Neo ET, the NPT gene, the EMCV-IRES directing translation of downstream HCV sequences from NS2 or NS3 up to the authentic 3' end of the genome. HCV Polyprotein of Luc Neo ET replicon harbours the cell culture adaptive mutations E1202G, T1280I, K1846T. G418-resistance is only possible with cells containing high amounts of replicon.
Cells were dissociated the day before addition of compounds and seeded in 96 well-plates at a final concentration of 27 777.77 cells.ml^-1.cm^-2 in 90µl final volume of culture medium per well and were maintained at 37°C and 5% CO2 in a humidified atmosphere for 24 hours. 10 µl of compounds to be tested were added 24 hours after seeding. Final concentration of DMSO was 1 %. Cells were incubated in the presence of compounds for 72 hours after which expression of firefly luciferase reporter gene was quantified. Briefly, culture medium was removed and cells were lysed by addition of 100 µl of lysis buffer containing 125 mM Tris Phosphate ph 7.8, 10 mM EDTA, 5 mM DTT, 50 % glycerol and 5 % Triton. Plates were vortexed 10 min at 1300 rpm. 100µl of luciferin solution 1X were added to each well. Luciferin solution contained 40 mM Tris Phosphate ph 7.8, 0.2 mM EDTA, 67 mM DTT, 2.14 mM MgCl2, 5.4 mM MgSO4, 4.7 x 10^-4 M luciferin, 5.3 x 10^-4 M ATP and 2.7 x 10^-4 M Acetyl co enzyme A. Luminescence was immediately measured with Berthold Microlumat Plus LB 96V luminometer with an integration of 1 sec. Inhibition was calculated using the formula: % inhibition = 1-[(RLUsample-RLUbackground)/(RLUsignal-RLUbackground)].
The Table 1 below illustrates data on the biological activity of compounds of the present invention. Results are expressed as EC50 which is the concentration that produces 50 % of replication inhibition. Table 1. HCV replication inhibition assay
A general note: A replicon is a self-replicating genome or part of one, used to study replication in cells.
One may read the EC50 as the midpoint of the concentration-response curve. `COc1ccc(CCN2C(=S)N(c3ccc(F)cc3)C(=O)C2CC(=O)Nc2ncc(OC)cn2)cc1` (stereo not drawn) [Example 84, 2-[1-(4-fluorophenyl)-3-[2-(4-methoxyphenyl)ethyl]-5-oxo-2-sulfanylideneimidazolidin-4-yl]-N-(5-methoxypyrimidin-2-yl)acetamide]: the EC50 is under 500 nM. The same measure, in the same setting: then `COc1ccc(CCN2C(=S)N(c3ccc(F)cc3)C(=O)C2CC(=O)Nc2ccc(OC)cc2F)cc1` (stereo not drawn) [Example 85, N-(2-fluoro-4-methoxyphenyl)-2-[1-(4-fluorophenyl)-3-[2-(4-methoxyphenyl)ethyl]-5-oxo-2-sulfanylideneimidazolidin-4-yl]acetamide], with under 500 nM; and `COc1ccc(CCN2C(=S)N(c3ccc(F)cc3)C(=O)C2CC(=O)Oc2ccc(OC)cc2)cc1` (stereo not drawn) [Example 86, 4-methoxyphenyl 2-[1-(4-fluorophenyl)-3-[2-(4-methoxyphenyl)ethyl]-5-oxo-2-sulfanylideneimidazolidin-4-yl]acetate], with under 30000 nM. Consider `COc1ccc(CCN2C(=S)N(c3ccc(F)cc3)C(=O)C2CC(=O)Nc2ccc(N3CCCC3=O)cc2)cc1` (stereo not drawn) [Example 87, 2-[1-(4-fluorophenyl)-3-[2-(4-methoxyphenyl)ethyl]-5-oxo-2-sulfanylideneimidazolidin-4-yl]-N-[4-(2-oxopyrrolidin-1-yl)phenyl]acetamide], for which the EC50 was under 5000 nM. For the compound `COc1ccc(CCN2C(=S)N(c3ccc(F)cc3)C(=O)C2CC(=O)Nc2ncc(OC)s2)cc1` (stereo not drawn) [Example 88, 2-[1-(4-Fluorophenyl)-3-[2-(4-methoxyphenyl)ethyl]-5-oxo-2-sulfanylideneimidazolidin-4-yl]-N-(5-methoxy-1,3-thiazol-2-yl)acetamide], the EC50 is under 500 nM. Take `COc1ccc(CCN2C(=S)N(c3ccccc3)C(=O)/C2=C\C(=O)Nc2ccc(N(C)C)cc2)cc1` [Example 90, N-[4-(dimethylamino)phenyl]-2-[(4E)-3-[2-(4-methoxyphenyl)ethyl]-5-oxo-1-phenyl-2-sulfanylideneimidazolidin-4-ylidene]acetamide]: the EC50 was under 500 nM. For the compound `COc1ccc(CCN2C(=S)N(c3ccc(F)cc3)C(=O)C2CC(=O)Nc2ccc(O)cc2)cc1` (stereo not drawn) [Example 91, 2-[1-(4-fluorophenyl)-3-[2-(4-methoxyphenyl)ethyl]-5-oxo-2-sulfanylideneimidazolidin-4-yl]-N-(4-hydroxyphenyl)acetamide], the 50% effective concentration (EC50) is under 500 nM. With `COc1ccc(CCCN2C(=S)N(c3ccc(F)cc3)C(=O)C2CC(=O)Nc2ccc(OC)cn2)cc1` (stereo not drawn) [Example 92, 2-[1-(4-fluorophenyl)-3-[3-(4-methoxyphenyl)propyl]-5-oxo-2-sulfanylideneimidazolidin-4-yl]-N-(5-methoxypyridin-2-yl)acetamide], the 50% effective concentration (EC50) is under 500 nM.

Consider `COc1ccc(CCCCN2C(=S)N(c3ccc(F)cc3)C(=O)C2CC(=O)Nc2ccc(OC)cn2)cc1` (stereo not drawn) [Example 93, 2-[1-(4-fluorophenyl)-3-[4-(4-methoxyphenyl)butyl]-5-oxo-2-sulfanylideneimidazolidin-4-yl]-N-(5-methoxypyridin-2-yl)acetamide], for which the EC50 is under 500 nM.

Still in this experiment, the particulars now being: Huh-7 cell lines containing HCV replicon Luc Neo ET; 72 hours with compound; 1 % DMSO; firefly luciferase reporter; concentration that produces 50 % of replication inhibition.
Turning to `COc1ccc(/C=C\N2C(=S)N(c3ccc(F)cc3)C(=O)C2CC(=O)Nc2ccc(OC)cn2)cc1` (stereo not drawn) [Example 89, 2-[1-(4-Fluorophenyl)-3-[(Z)-2-(4-methoxyphenyl)ethenyl]-5-oxo-2-sulfanylideneimidazolidin-4-yl]-N-(5-methoxypyridin-2-yl)acetamide], the “EC50 Replicon LucneoET” value is “Non Active”.

Still in this experiment, the particulars now being: Huh-7 cell lines containing HCV replicon Luc Neo ET; 72 hours with compound; 1 % DMSO; firefly luciferase reporter; concentration that produces 50 % of replication inhibition; read-out: EC50 Replicon LucneoET.
On to `COc1ccc(/C=C/N2C(=S)N(c3ccc(F)cc3)C(=O)C2CC(=O)Nc2ccc(OC)cn2)cc1` (stereo not drawn) [Example 95], for which the concentration giving a half-maximal response (EC50) is under 500 nM. On the same count and under the same terms, then `COc1ccc(CCN2C(=S)N(c3ccc(F)cc3)C(=O)C2CC(=O)Nc2c(F)cc(OC)cc2F)cc1` (stereo not drawn) [Example 97], with under 500 nM; and `COc1ccc(NC(=O)CC2C(=O)N(c3ccc(F)cc3)C(=S)N2CCc2ccc(OCCNC(=O)OC(C)(C)C)cc2)nc1` (stereo not drawn) [Example 98], with under 500 nM; and “N-[4-(dimethylamino)phenyl]-2-[1-(4-fluorophenyl)-4-hydroxy-3-[2-(4-methoxyphenyl)ethyl]-5-oxo-2-sulfanylideneimidazolidin-4-yl]acetamide [Example 77]”, with under 500 nM.

With “N-[4-(dimethylamino)phenyl]-2-{4-hydroxy-3-[2-(4-methoxyphenyl)ethyl]-5-oxo-1-phenyl-2-sulfanylideneimidazolidin-4-yl}acetamide [Example 70]”, the EC50 is under 500 nM.

Values taken from patent EP2664616A1, “Hydantoin and thiohydantoin derivatives as antiviral drugs” (priority 2012, dated 2013).
